Data as given in patent US20110294778A1, “HEPATITIS C INHIBITOR COMPOUNDS” (priority 2009, published 2011).
Like-named read-outs stand apart in the source and are kept apart here.

Legend:
[1] = tested on: HCV genotype 1b (Con-1) subgenomic replicon with NS3 resistance mutation D168V in Huh-7 cells; assay: HCV replicon RNA replication assay (NS3 protease variants), genotype 1b D168V; format: cell-based; conditions: Hepatitis C virus
[2] = tested on: HCV genotype 1a (strain H77) subgenomic replicon with NS3 resistance mutation R155K in Huh-7 cells; assay: HCV replicon RNA replication assay (NS3 protease variants), genotype 1a R155K; format: cell-based; conditions: Hepatitis C virus
[3] = Huh-7, 72 h, read-out: D168V 1b EC50 (nM)
[4] = Huh-7, 72 h, read-out: R155K 1a EC50 (nM)

SMILES | EC50 [1, 3] | EC50 [2, 4] | EC50 ([1]; Huh-7, read-out: D168V 1b Ec50 (nM)) | EC50 ([2]; Huh-7, read-out: R155K 1a Ec50 (nM))
COc1ccc2c(O[C@@H]3C[C@H]4C(=O)N[C@]5(C(=O)NS(=O)(=O)C6(C)CC6)C[C@H]5/C=C\CCCCC[C@H](NC(=O)c5cc(C)n(C)n5)C(=O)N4C3)cc(OC(C)C)nc2c1C [Compound 1026, (2R,6S,12Z,13aS,14aR,16aS)-6-{[(1,5-dimethyl-1H-pyrazol-3-yl)carbonyl]amino}-2-{[7-methoxy-8-methyl-2-(propan-2-yloxy)quinolin-4-yl]oxy}-N-[(1-methylcyclopropyl)sulfonyl]-5,16-dioxo-1,2,3,6,7,8,9,10,11,13a,14,15,16,16a-tetradecahydrocyclopropa[e]pyrrolo[1,2-a][1,4]diazacyclopentadecine-14a(5H)-carboxamide] | 0.32 nM | 3.3 nM |  | 
COc1ccc2c(O[C@@H]3C[C@H]4C(=O)N[C@]5(C(=O)NS(=O)(=O)C6(C)CC6)C[C@H]5/C=C\CCCCC[C@H](NC(=O)N5CC(C)(C)C5)C(=O)N4C3)cc(OC(C)C)nc2c1C [Compound 2021, (2R,6S,12Z,13aS,14aR,16aS)-6-{[(3,3-dimethylazetidin-1-yl)carbonyl]amino}-2-{[7-methoxy-8-methyl-2-(propan-2-yloxy)quinolin-4-yl]oxy}-N-[(1-methylcyclopropyl)sulfonyl]-5,16-dioxo-1,2,3,6,7,8,9,10,11,13a,14,15,16,16a-tetradecahydrocyclopropa[e]pyrrolo[1,2-a][1,4]diazacyclopentadecine-14a(5H)-carboxamide] | 1.6 nM | 3 nM |  | 
CC(C)(C)OC(=O)N[C@H]1CCCCC/C=C\C2C[C@@]2(C(=O)NS(=O)(=O)C2CC2)NC(=O)[C@@H]2C[C@@H](OC(=O)N3Cc4cccc(F)c4C3)CN2C1=O (stereo partly shown) [reference compound] |  |  | 120 nM | 690 nM
Cc1ccc(C(=O)N[C@H]2CCCCC/C=C\[C@@H]3C[C@@]3(C(=O)NS(=O)(=O)C3CC3)NC(=O)[C@@H]3C[C@@H](Oc4cc(OC(C)C)nc5c(C)c(O)ccc45)CN3C2=O)s1 [Compound 1036, (2R,6S,12Z,13aS,14aR,16aS)-N-(cyclopropylsulfonyl)-2-{[7-hydroxy-8-methyl-2-(propan-2-yloxy)quinolin-4-yl]oxy}-6-{[(5-methylthiophen-2-yl)carbonyl]amino}-5,16-dioxo-1,2,3,6,7,8,9,10,11,13a,14,15,16,16a-tetradecahydrocyclopropa[e]pyrrolo[1,2-a][1,4]diazacyclopentadecine-14a(5H)-carboxamide] | 1.3 nM | 3.2 nM |  | 
CCOc1ccc2c(O[C@@H]3C[C@H]4C(=O)N[C@]5(C(=O)NS(=O)(=O)C6(C)CC6)C[C@H]5/C=C\CCCCC[C@H](NC(=O)c5ccn(C)n5)C(=O)N4C3)cc(OC(C)C)nc2c1Cl [Compound 1001, (2R,6S,12Z,13aS,14aR,16aS)-2-{[8-chloro-7-ethoxy-2-(propan-2-yloxy)quinolin-4-yl]oxy}-N-[(1-methylcyclopropyl)sulfonyl]-6-{[(1-methyl-1H-pyrazol-3-yl)carbonyl]amino}-5,16-dioxo-1,2,3,6,7,8,9,10,11,13a,14,15,16,16a-tetradecahydrocyclopropa[e]pyrrolo[1,2-a][1,4]diazacyclopentadecine-14a(5H)-carboxamide] | 0.33 nM | 2.6 nM |  | 
Cc1ccc(C(=O)N[C@H]2CCCCC/C=C\[C@@H]3C[C@@]3(C(=O)NS(=O)(=O)C3(C)CC3)NC(=O)[C@@H]3C[C@@H](Oc4cc(OC(C)C)nc5c(C)c(O)ccc45)CN3C2=O)s1 [Compound 1033, (2R,6S,12Z,13aS,14aR,16aS)-2-{[7-hydroxy-8-methyl-2-(propan-2-yloxy)quinolin-4-yl]oxy}-N-[(1-methylcyclopropyl)sulfonyl]-6-{[(5-methylthiophen-2-yl)carbonyl]amino}-5,16-dioxo-1,2,3,6,7,8,9,10,11,13a,14,15,16,16a-tetradecahydrocyclopropa[e]pyrrolo[1,2-a][1,4]diazacyclopentadecine-14a(5H)-carboxamide] | 0.58 nM | 0.77 nM |  | 
COc1ccc2c(O[C@@H]3C[C@H]4C(=O)N[C@]5(C(=O)NS(=O)(=O)C6CC6)C[C@H]5/C=C\CCCCC[C@H](NC(=O)c5ccno5)C(=O)N4C3)cc(OC(C)C)nc2c1C [Compound 1032, (2R,6S,12Z,13aS,14aR,16aS)-N-(cyclopropylsulfonyl)-2-{[7-methoxy-8-methyl-2-(propan-2-yloxy)quinolin-4-yl]oxy}-6-[(1,2-oxazol-5-ylcarbonyl)amino]-5,16-dioxo-1,2,3,6,7,8,9,10,11,13a,14,15,16,16a-tetradecahydrocyclopropa[e]pyrrolo[1,2-a][1,4]diazacyclopentadecine-14a(5H)-carboxamide] | 0.58 nM | 7.8 nM |  | 
COc1ccc2c(O[C@@H]3C[C@H]4C(=O)N[C@]5(C(=O)NS(=O)(=O)C6CC6)C[C@H]5/C=C\CCCCC[C@H](NC(=O)c5ccn(CCF)n5)C(=O)N4C3)cc(OC(C)C)nc2c1C [Compound 1031, (2R,6S,12Z,13aS,14aR,16aS)-N-(cyclopropylsulfonyl)-6-({[1-(2-fluoroethyl)-1H-pyrazol-3-yl]carbonyl}amino)-2-{[7-methoxy-8-methyl-2-(propan-2-yloxy)quinolin-4-yl]oxy}-5,16-dioxo-1,2,3,6,7,8,9,10,11,13a,14,15,16,16a-tetradecahydrocyclopropa[e]pyrrolo[1,2-a][1,4]diazacyclopentadecine-14a(5H)-carboxamide] | 0.39 nM | 4.2 nM |  | 
CCn1ccc(C(=O)N[C@H]2CCCCC/C=C\[C@@H]3C[C@@]3(C(=O)NS(=O)(=O)C3CC3)NC(=O)[C@@H]3C[C@@H](Oc4cc(OC(C)C)nc5c(C)c(OC)ccc45)CN3C2=O)n1 [Compound 1024, (2R,6S,12Z,13aS,14aR,16aS)-N-(cyclopropylsulfonyl)-6-{[(1-ethyl-1H-pyrazol-3-yl)carbonyl]amino}-2-{[7-methoxy-8-methyl-2-(propan-2-yloxy)quinolin-4-yl]oxy}-5,16-dioxo-1,2,3,6,7,8,9,10,11,13a,14,15,16,16a-tetradecahydrocyclopropa[e]pyrrolo[1,2-a][1,4]diazacyclopentadecine-14a(5H)-carboxamide] | 0.31 nM | 3.9 nM |  | 
COc1ccc2c(O[C@@H]3C[C@H]4C(=O)N[C@]5(C(=O)NS(=O)(=O)C6(C)CC6)C[C@H]5/C=C\CCCCC[C@H](NC(=O)N(C)C)C(=O)N4C3)cc(OC(C)C)nc2c1Br [Compound 2016, (2R,6S,12Z,13aS,14aR,16aS)-2-{[8-bromo-7-methoxy-2-(propan-2-yloxy)quinolin-4-yl]oxy}-6-[(dimethylcarbamoyl)amino]-N-[(1-methylcyclopropyl)sulfonyl]-5,16-dioxo-1,2,3,6,7,8,9,10,11,13a,14,15,16,16a-tetradecahydrocyclopropa[e]pyrrolo[1,2-a][1,4]diazacyclopentadecine-14a(5H)-carboxamide] | 1 nM | 2 nM |  | 
COc1ccc2c(O[C@@H]3C[C@H]4C(=O)N[C@]5(C(=O)NS(=O)(=O)C6CC6)C[C@H]5/C=C\CCCCC[C@H](NC(=O)c5ccn(CC(=O)N(C)C)n5)C(=O)N4C3)cc(OC(C)C)nc2c1C [Compound 1002, (2R,6S,12Z,13aS,14aR,16aS)-N-(cyclopropylsulfonyl)-6-[({1-[2-(dimethylamino)-2-oxoethyl]-1H-pyrazol-3-yl}carbonyl)amino]-2-{[7-methoxy-8-methyl-2-(propan-2-yloxy)quinolin-4-yl]oxy}-5,16-dioxo-1,2,3,6,7,8,9,10,11,13a,14,15,16,16a-tetradecahydrocyclopropa[e]pyrrolo[1,2-a][1,4]diazacyclopentadecine-14a(5H)-carboxamide] | 3 nM | 2.6 nM |  | 
COc1ccc2c(O[C@@H]3C[C@H]4C(=O)N[C@]5(C(=O)NS(=O)(=O)C6(C)CC6)C[C@H]5/C=C\CCCCC[C@H](NC(=O)N5CCC(F)(F)C5)C(=O)N4C3)cc(OC(C)C)nc2c1C [Compound 2004, (2R,6S,12Z,13aS,14aR,16aS)-6-{[(3,3-difluoropyrrolidin-1-yl)carbonyl]amino}-2-{[7-methoxy-8-methyl-2-(propan-2-yloxy)quinolin-4-yl]oxy}-N-[(1-methylcyclopropyl)sulfonyl]-5,16-dioxo-1,2,3,6,7,8,9,10,11,13a,14,15,16,16a-tetradecahydrocyclopropa[e]pyrrolo[1,2-a][1,4]diazacyclopentadecine-14a(5H)-carboxamide] | 1.6 nM | 8.2 nM |  | 
CCn1ccc(C(=O)N[C@H]2CCCCC/C=C\[C@@H]3C[C@@]3(C(=O)NS(=O)(=O)C3(C)CC3)NC(=O)[C@@H]3C[C@@H](Oc4cc(OC(C)C)nc5c(C)c(OC)ccc45)CN3C2=O)n1 [Compound 1019, (2R,6S,12Z,13aS,14aR,16aS)-6-{[(1-ethyl-1H-pyrazol-3-yl)carbonyl]amino}-2-{[7-methoxy-8-methyl-2-(propan-2-yloxy)quinolin-4-yl]oxy}-N-[(1-methylcyclopropyl)sulfonyl]-5,16-dioxo-1,2,3,6,7,8,9,10,11,13a,14,15,16,16a-tetradecahydrocyclopropa[e]pyrrolo[1,2-a][1,4]diazacyclopentadecine-14a(5H)-carboxamide] | 0.16 nM | 0.88 nM |  | 
CCOc1cc(O[C@@H]2C[C@H]3C(=O)N[C@]4(C(=O)NS(=O)(=O)C5(C)CC5)C[C@H]4/C=C\CCCCC[C@H](NC(=O)N4CC(F)C4)C(=O)N3C2)c2ccc(OC)c(C)c2n1 [Compound 2014, (2R,6S,12Z,13aS,14aR,16aS)-2-[(2-ethoxy-7-methoxy-8-methylquinolin-4-yl)oxy]-6-{[(3-fluoroazetidin-1-yl)carbonyl]amino}-N-[(1-methylcyclopropyl)sulfonyl]-5,16-dioxo-1,2,3,6,7,8,9,10,11,13a,14,15,16,16a-tetradecahydrocyclopropa[e]pyrrolo[1,2-a][1,4]diazacyclopentadecine-14a(5H)-carboxamide] | 0.53 nM | 8.4 nM |  | 
